Results from patent US9283235B2, “Intermittent lowering of cortisol as treatment of clinical conditions associated with abnormal concentrations of cortisol in animals” (Stegram Pharmaceuticals Limited, priority 2001, dated 2016).
Several values for one entry are separate records, joined by “and”; a condition that tells them apart may be missing. Equal values may be shown once. Entries after “also recorded” stand apart in the source; their conditions may differ.

Tests used:
serum cortisol = assay: Canine serum cortisol over 24 hours pre and post trilostane; type: in vivo, dog; details: for Canine serum cortisol, post: individual dogs; for Canine serum cortisol, post, Mean: mean of dogs
Description: With this level of lowering there was relief of the symptoms of the Cushing's disease.

[1] = test system: hypothalamic-pituitary-adrenal axis; assay: Combined dexamethasone suppression / TRH stimulation test, serum cortisol in horses; type: in vivo, horse
Protocol: The ability of intermittent administration of Trilostane to block adrenal steroidogenesis was assessed in twenty horses (mean age 21, SD 5.7 years) with equine Cushing's disease. The combined dexamethasone suppression thyrotropin releasing hormone (TRH) stimulation test (17 horses) or TRH stimulation test (3 horses) was used as a standard test of function of the hypothalamic-pituitary-adrenal axis. Serum samples for cortisol analysis were collected via indwelling catheter at 4-hourly intervals over 24 hours on each of the test periods. These were before treatment then at 210 minutes (30 min after I mg i.v. TRH) and 22 hours after […] dexamethasone i.m. Affected horses were treated with 0.4 to 1 mg/kg, (mean 0.5 mg/kg) trilostane administered once daily in feed for a period of 30 days. After 30 days endocrine testing was repeated. Serum cortisol before and after treatment was compared by paired t-test.
This is similar to the post ACTH stimulation in the dogs. The adrenal gland is not responding to stimulation by pituitary hormone in the same way as before trilostane treatment.

[2] = Table 2, individual horses, after trilostane
[3] = Table 5, individual horses, after 30 days 0.4–1.0 mg/k
[4] = mean of horses, after 30 days trilostane

For `CC12CCC3C(CC[C@@]45O[C@@H]4C(=O)C(C#N)CC35C)C1CC[C@@H]2O` (stereo partly drawn) [Trilostane, 2α-cyano-4α,5α-epoxyandrostan-17β-ol-3-one], the “Canine serum cortisol, post” value (serum cortisol; 12 hrs after dose) was 5 nmol/l and 75 nmol/l and 83 nmol/l and 66 nmol/l (2×) and 158 nmol/l and 197 nmol/l and 143 nmol/l and 164 nmol/l and 318 nmol/l, the “Canine serum cortisol, post” value (serum cortisol; 19 hrs after dose) was 52 nmol/l and 101 nmol/l and 92 nmol/l and 63 nmol/l and 85 nmol/l and 183 nmol/l (3×) and 139 nmol/l and 230 nmol/l and the “Canine serum cortisol, post” value (serum cortisol; 20 hrs after dose) was 166 nmol/l and 105 nmol/l and 86 nmol/l and 97 nmol/l and 61 nmol/l and 154 nmol/l and 144 nmol/l (2×) and 108 nmol/l and 199 nmol/l. For the same compound, the “Canine serum cortisol, post” value (serum cortisol; 24 hrs after dose) was 117 nmol/L and 109 nmol/L and 51 nmol/L and 74 nmol/L and 66 nmol/L and 171 nmol/L and 144 nmol/L and 131 nmol/L and 154 nmol/L and 246 nmol/L, the “Canine serum cortisol, post” value (serum cortisol; 28 hrs after dose) was 147 nmol/L and 112 nmol/L and 75 nmol/L and 86 nmol/L and 53 nmol/L and 124 nmol/L and 190 nmol/L and 174 nmol/L and 246 nmol/L and 313 nmol/L and the “Canine serum cortisol, post, Mean” value (serum cortisol; 4 hrs) was 33 nmol/L. The “Canine serum cortisol, post, Mean” value (serum cortisol; 8 hrs) was 105 nmol/L, the “Canine serum cortisol, post, Mean” value (serum cortisol; 12 hrs) was 130 nmol/L and the “Canine serum cortisol, post, Mean” value (serum cortisol; 19 hrs) was 131 nmol/L. For the same compound, the “Canine serum cortisol, post, Mean” value (serum cortisol; 20 hrs) was 126 nmol/L, the “Canine serum cortisol, post, Mean” value (serum cortisol; 24 hrs) was 126 nmol/L and the “Canine serum cortisol, post, Mean” value (serum cortisol; 28 hrs) was 152 nmol/L. For the same compound, the “Serum cortisol Post-Treatment Base” value [1, 2] was 160 and 236 and 116 and 254 and 149 and 127 and 112 and 136 and 65 and 202 and 81 and 100 and 209 and 189 and 121 and 288, the “Serum cortisol Post-Treatment Post Dex” value [1, 2] was 170 and 149 and 118 and 113 (2×) and 82 and 81 (2×) and 163 and 50 and 101 and 138 and 47 and 1 and 153 and the “Serum cortisol Post-Treatment Post TRH” value [1, 2] was 114 and 316 and 167 and 193 and 93 and 79 and 139 and 158 and 170 and 88 and 150 and 117 and 100 (2×) and 138 and 224. The “% change” value ([1]; Table 2, individual horses, pre vs post treatment) was −60.5% and −69% and −8% and −84% and −82% and −16% and −5% and −27% and −233% and −50% and −1% and −10% and 18% and −57% and 1% and −15.8%, the “Different, pre-post: % TRH resp” value ([1]; Table 5, individual horses) was 60% and 69% and 8% and 84% and 52% and 16% (2×) and 5% and 27% and 152% and 50% and 1% and 11% and −18% and 57% and 37% and the “Different, pre-post: Base” value ([1]; Table 5, individual horses) was -33 nmol/L and -105 nmol/L and 15 nmol/L and -118 nmol/L and -124 nmol/L and -23 nmol/L and 20 nmol/L and -8 nmol/L and 8 nmol/L and 29 nmol/L and 5 nmol/L and 2 nmol/L and 65 nmol/L and -18 nmol/L and 22 nmol/L and -95 nmol/L. The “Different, pre-post: post Dex” value ([1]; Table 5, individual horses) was −20 nmol/l and 12 nmol/l and 4 nmol/l and −10 nmol/l and 7 nmol/l (2×) and −16 nmol/l and −17 nmol/l and 107 nmol/l and 5 nmol/l and 15 nmol/l and −40 nmol/l and 23 nmol/l and 60 nmol/l and −67 nmol/l, the “Different, pre-post: post TRH” value ([1]; Table 5, individual horses) was 53 nmol/L and -50 nmol/L and 32 nmol/L and 27 nmol/L and 49 nmol/L and 2 nmol/L and 31 nmol/L and 25 nmol/L and 66 nmol/L and 130 nmol/L and 10 nmol/L and 8 nmol/L and -19 nmol/L and 84 nmol/L and 71 nmol/L and -43 nmol/L and the “Cortisol post Trilostane Base” value [1, 3] was 160 nmol/L and 236 nmol/L and 116 nmol/L and 254 nmol/L and 149 nmol/L and 127 nmol/L and 112 nmol/L and 136 nmol/L and 65 nmol/L and 202 nmol/L and 81 nmol/L and 100 nmol/L and 209 nmol/L and 189 nmol/L and 121 nmol/L and 288 nmol/L. For the same compound, the “Cortisol post Trilostane post Dex” value [1, 3] was 170 nmol/l and 149 nmol/l and 118 nmol/l and 113 nmol/l (2×) and 82 nmol/l and 81 nmol/l (2×) and 163 nmol/l and 50 nmol/l and 101 nmol/l and 138 nmol/l and 47 nmol/l and 1 nmol/l and 153 nmol/l, the “Cortisol post Trilostane post TRH” value [1, 3] was 114 nmol/l and 316 nmol/l and 167 nmol/l and 193 nmol/l and 93 nmol/l and 79 nmol/l and 139 nmol/l and 158 nmol/l and 170 nmol/l and 88 nmol/l and 150 nmol/l and 117 nmol/l and 100 nmol/l (2×) and 138 nmol/l and 224 nmol/l and the “post Trilostane % TRH resp” value [1, 3] was −29% and 34% and 44% and −24% and −38% (2×) and 24% and 16% and 162% and −56% and 85% and 17% and −52% and −27% and −17% and −22%. The “Cortisol response to TRH / Dex pre vs post trilostane, in words” value ([1]; horses, single daily dose) was “lowering of the response to TRH; also recorded: decrease in cortisol response to TRH administration”, the “Different, pre-post: % TRH resp, group mean” value ([1]; mean of horses) was 39.2% and the “Different, pre-post: Base, group mean” value ([1]; mean of horses) was -22 nmol/L. The “Different, pre-post: post Dex, group mean” value ([1]; mean of horses) was 5 nmol/L, the “Different, pre-post: post TRH, group mean” value ([1]; mean of horses) was 30 nmol/L and the “Cortisol post Trilostane post Dex, group mean” value ([1]; mean of horses, 22 hours post dexamethasone, after 30 days trilostane) was 104 nmol/L. For the same compound, the “Cortisol post Trilostane Base, group mean” value [1, 4] was 159 nmol/L and the “Cortisol post Trilostane post TRH, group mean” value [1, 4] was 147 nmol/L.
